Data reported in patent publication US8133847B2, “Pyrido[2,3-B]pyrazine derivatives useful as herbicidal compounds” (Syngenta Limited, priority 2006, dated 2012).

Assays:
Assay in all cases: Example B2 herbicidal action, post-emergence, pots in glasshouse
Format in all cases: in vivo
[1] = tested on: Amaranthus retroflexus (AMARE); conditions: Application post-emergence, evaluated after 13 days (100=total damage to plant; 0=no damage to plant)
Procedure: (§1) Seeds of a variety of test species were sown in standard soil in pots. After 8 days cultivation (post-emergence) under controlled conditions in a glasshouse (at 24/16° C., day/night; 14 hours light; 65% humidity), the plants were sprayed with an aqueous spray solution derived from the formulation of the technical active ingredient in acetone/water (50:50) solution containing 0.5% Tween 20 (polyoxyethylene sorbitan monolaurate, CAS RN 9005-64-5). The test plants were then grown in a glasshouse under controlled conditions in a glasshouse (at 24/16° C., day/night; 14 hours light; 65% humidity) and watered twice daily. After 13 days, the test was evaluated (100=total damage to plant; 0=no damage to plant).

[2] = tested on: Echinochloa crusgalli (ECHCG); conditions: Application post-emergence, evaluated after 13 days (100=total damage to plant; 0=no damage to plant)
Procedure: as §1

[3] = tested on: Ipomea hederaceae (IPOHE); conditions: Application post-emergence, evaluated after 13 days (100=total damage to plant; 0=no damage to plant)
Procedure: as §1

[4] = tested on: Setaria faberi (SETFA); conditions: Application post-emergence, evaluated after 13 days (100=total damage to plant; 0=no damage to plant)
Procedure: as §1

[5] = tested on: Solanum nigrum (SOLNI); conditions: Application post-emergence, evaluated after 13 days
Procedure: as §1

Cn1c(=O)c(-c2c(F)ccc(Cl)c2Cl)c(OC(=O)C(C)(C)C)c2nccnc21 [Compound C163]
damage to plant, Amaranthus retroflexus (AMARE) [1]: 6 | damage to plant, Echinochloa crusgalli (ECHCG) [2]: 1 | damage to plant, Ipomea hederaceae (IPOHE) [3]: 9 | damage to plant, Setaria faberi (SETFA) [4]: 0 | damage to plant, Solanum nigrum (SOLNI) [5]: 9

CCn1c(=O)c(-c2ccc(C(F)(F)F)cc2Br)c(OC(=O)C(C)(C)C)c2nccnc21 [Compound C147]
damage to plant, Amaranthus retroflexus (AMARE) [1]: 2 | damage to plant, Echinochloa crusgalli (ECHCG) [2]: 0 | damage to plant, Ipomea hederaceae (IPOHE) [3]: 2 | damage to plant, Setaria faberi (SETFA) [4]: 0 | damage to plant, Solanum nigrum (SOLNI) [5]: 4

CC(C)C(=O)Oc1c(-c2c(F)ccc(Br)c2Cl)c(=O)[nH]c2nccnc12 [Compound B50]
damage to plant, Amaranthus retroflexus (AMARE) [1]: 10 | damage to plant, Echinochloa crusgalli (ECHCG) [2]: 8 | damage to plant, Ipomea hederaceae (IPOHE) [3]: 8 | damage to plant, Setaria faberi (SETFA) [4]: 8 | damage to plant, Solanum nigrum (SOLNI) [5]: 9

CC(C)(C)C(=O)Oc1c(-c2ccccc2OC(F)F)c(=O)[nH]c2nccnc12 [Compound B59]
damage to plant, Amaranthus retroflexus (AMARE) [1]: 0 | damage to plant, Echinochloa crusgalli (ECHCG) [2]: 0 | damage to plant, Ipomea hederaceae (IPOHE) [3]: 3 | damage to plant, Setaria faberi (SETFA) [4]: 4 | damage to plant, Solanum nigrum (SOLNI) [5]: 2

CC(C)C(=O)Oc1c(-c2c(F)ccc(Br)c2Cl)c(=O)n(C)c2nccnc12 [Compound C144]
damage to plant, Amaranthus retroflexus (AMARE) [1]: 10 | damage to plant, Echinochloa crusgalli (ECHCG) [2]: 4 | damage to plant, Ipomea hederaceae (IPOHE) [3]: 9 | damage to plant, Setaria faberi (SETFA) [4]: 2 | damage to plant, Solanum nigrum (SOLNI) [5]: 10

CCn1c(=O)c(-c2c(F)ccc(Br)c2Cl)c(OC(=O)C(C)(C)C)c2nccnc21 [Compound C155]
damage to plant, Amaranthus retroflexus (AMARE) [1]: 10 | damage to plant, Echinochloa crusgalli (ECHCG) [2]: 3 | damage to plant, Ipomea hederaceae (IPOHE) [3]: 9 | damage to plant, Setaria faberi (SETFA) [4]: 0 | damage to plant, Solanum nigrum (SOLNI) [5]: 10

CCn1c(=O)c(-c2cc(F)c(Cl)cc2Cl)c(OC(=O)C(C)C)c2nccnc21 [Compound C152]
damage to plant, Amaranthus retroflexus (AMARE) [1]: 10 | damage to plant, Echinochloa crusgalli (ECHCG) [2]: 4 | damage to plant, Ipomea hederaceae (IPOHE) [3]: 6 | damage to plant, Setaria faberi (SETFA) [4]: 2 | damage to plant, Solanum nigrum (SOLNI) [5]: 9

CCn1c(=O)c(-c2c(Cl)cc(OC(F)(F)F)cc2Cl)c(O)c2nccnc21 [Compound D11]
damage to plant, Amaranthus retroflexus (AMARE) [1]: 10 | damage to plant, Echinochloa crusgalli (ECHCG) [2]: 10 | damage to plant, Ipomea hederaceae (IPOHE) [3]: 10 | damage to plant, Setaria faberi (SETFA) [4]: 9 | damage to plant, Solanum nigrum (SOLNI) [5]: 10

O=c1[nH]c2nccnc2c(O)c1-c1ccccc1Br [Compound A24]
damage to plant, Amaranthus retroflexus (AMARE) [1]: 10 | damage to plant, Echinochloa crusgalli (ECHCG) [2]: 4 | damage to plant, Ipomea hederaceae (IPOHE) [3]: 6 | damage to plant, Setaria faberi (SETFA) [4]: 6 | damage to plant, Solanum nigrum (SOLNI) [5]: 9

O=c1[nH]c2nccnc2c(O)c1-c1c(F)ccc(Br)c1Cl [Compound A40]
damage to plant, Amaranthus retroflexus (AMARE) [1]: 9 | damage to plant, Echinochloa crusgalli (ECHCG) [2]: 5 | damage to plant, Ipomea hederaceae (IPOHE) [3]: 0 | damage to plant, Setaria faberi (SETFA) [4]: 9 | damage to plant, Solanum nigrum (SOLNI) [5]: 8

CC(C)C(=O)Oc1c(-c2cc(F)c(Cl)cc2Cl)c(=O)n(C)c2nccnc12 [Compound C148]
damage to plant, Amaranthus retroflexus (AMARE) [1]: 9 | damage to plant, Echinochloa crusgalli (ECHCG) [2]: 6 | damage to plant, Ipomea hederaceae (IPOHE) [3]: 7 | damage to plant, Setaria faberi (SETFA) [4]: 4 | damage to plant, Solanum nigrum (SOLNI) [5]: 6

CCn1c(=O)c(-c2ccccc2OC(F)F)c(OC(=O)C(C)(C)C)c2nccnc21 [Compound C169]
damage to plant, Amaranthus retroflexus (AMARE) [1]: 9 | damage to plant, Echinochloa crusgalli (ECHCG) [2]: 0 | damage to plant, Ipomea hederaceae (IPOHE) [3]: 7 | damage to plant, Setaria faberi (SETFA) [4]: 0 | damage to plant, Solanum nigrum (SOLNI) [5]: 9

COc1ccc(OC(F)(F)F)cc1-c1c(OC(=O)C(C)C)c2nccnc2n(C)c1=O [Compound C159]
damage to plant, Amaranthus retroflexus (AMARE) [1]: 9 | damage to plant, Echinochloa crusgalli (ECHCG) [2]: 9 | damage to plant, Ipomea hederaceae (IPOHE) [3]: 2 | damage to plant, Setaria faberi (SETFA) [4]: 7 | damage to plant, Solanum nigrum (SOLNI) [5]: 8
